We go through eleven molecules from patent publication EP4538258A1, “IMIDAZOLIDINYL VANILLIC ACID ETHER DERIVATIVE AND USE THEREOF” (Hefei Institute of Pharmaceutical Industry Co., Ltd., priority 2022, dated 2023).

By inhibition is commonly meant the change of the read-out against control, counted positive when it falls.

Structures can show the parent of a compound that is named as a salt. Where two headings read alike, the source gives them in different places.

The subject of data set [1] is arteriovenous bypass thrombi. The experiment in a line: Antithrombotic activity in vivo: arteriovenous bypass thrombosis in rats. More on the design: species or system SD rats. To be noted: single gavage 15 mg/kg; for inhibition at 15 mg/kg: Rattus norvegicus, po, vs blank control; for Thrombus wet weight: 1 h after administration, blood flow 15 min; for Thrombus wet weight / Thrombus dry weight: x±s, n=8; for Thrombus dry weight: thread dried at 70°C. Here is the method:
104 SD rats (purchased from Weitong Lihua Experimental Animal Technology Co., Ltd., certificate number: 20211103Aazz0619000910), male, weighing 180-220 g, were randomly divided into 13 groups according to body weight after 7 days of adaptive feeding, with 8 rats in each group, namely, normal control group, compound A group, compound A methyl ester group, and Example 1-10 compound groups respectively. Each group was given corresponding drugs by gavage (dosage was 15 mg/kg), and the normal control group was given an equal volume of solvent, all of which were given by single gavage. One hour after the last administration, the rats were anesthetized with 3% chloral hydrate intraperitoneally, and the right common carotid artery and left external jugular vein were isolated in a supine position. A polyethylene tube was taken with an inner diameter of 1.5 mm and a length of 10 cm, a 6 cm long silk thread (preweighed) was inserted into it, and the polyethylene tube was filled with normal saline solution of heparin (50 U/ml). One end of the polyethylene tube was inserted into the left external jugular vein, heparin (50 U/kg) was injected, and the other end was inserted into the right common carotid artery. After blood flow was opened for 15 minutes, the blood flow was interrupted and the silk thread was quickly taken out and weighed. The total weight minus the original silk thread weight was the wet weight of the thrombus. The silk thread was placed in an oven for drying at 70°C. The dry weight of the thrombus was obtained by weighing the silk thread minus the original silk thread weight, and the inhibition rate was calculated. [formula] [formula]

The nature of data set [2]: Pharmacokinetics in vivo in rats after gavage. The conditions noted are these: rat, p.o. 15 mg/kg (calculated as Compound A), mean value. More on the design: species or system SD male rats. Here is the method: Eighteen SD male rats (purchased from Weitong Lihua Experimental Animal Technology Co., Ltd., certificate number: 20211103Aazz0619000910), weighing 240-280 g, were randomly divided into 6 groups, with 3 rats in each group. The animals were fasted overnight before administration. On the day of administration, the compounds of Examples 3, 4, 5, 6, Compound A, and Compound A methyl ester were gavaged to the animals in each groups respectively, and the dosage was 15 mg/kg (calculated as Compound A). Before administration and 0.25, 0.5, 1, 2, 4, 6, 8, and 24 h after administration, 0.15 mL of blood was collected from the animals through the jugular sinus and placed in an EDTA-K2 anticoagulant tube containing 3 µL of dichlorvos aqueous solution (10 mg/mL). After centrifugation, plasma was collected, and was placed in the sample, and then 10 µL of plasma sample was taken, 500 µL of acetonitrile containing IS (verapamil 5 ng·mL^-1, glibenclamide 50 ng·mL^-1, tolbutamide 200 ng·mL^-1, and diclofenac 200 ng·mL^-1) was added, vortexed for 10 min, and then centrifuged at 3700 rpm for 10 min, and then 70 µL of supernatant and 70 µL of water were added, and vortexed for 10 min. An aliquot of 2 µL of the mixture was injected into the LC-MS/MS system (Triple Quad 5500+: LC-MS-MS-022) to measure blood concentration of the compounds. […]

Where [3] appears, read: read-out: Inhibition rate (thrombus dry weight).
Setting [4] is: read-out: Inhibition rate (thrombus wet weight).

With `COc1cc(C(=O)Oc2ccc(C[C@H](N)C(=O)O)cc2)ccc1OCCn1ccnc1.Cl` [Example 9, (S)-4-(4-(2-(1H-imidazol-1-yl)ethoxy)-3-methoxybenzoyloxy)phenylalanine hydrochloride], the inhibition at 15 mg/kg in data set [1] (setting [3]) amounted to 57.4%. In data set [1] (setting [4]), the inhibition at 15 mg/kg turned out to be 49.4%. Also, in data set [1], the Thrombus wet weight is listed as 51.1±12.7^★★**## mg and the Thrombus dry weight is given as 14.5±6.2^★★**## mg.

For `COc1cc(C(=O)OCCCCCC(=O)O)ccc1OCCn1ccnc1` [Example 3, 6-(4-(2-(1H -imidazol-1-yl)ethoxy)-3-methoxybenzoyloxy)hexanoic acid], the inhibition at 15 mg/kg in data set [1] (setting [3]) came to 64%. The inhibition at 15 mg/kg in data set [1] (setting [4]) worked out at 53.3%. Further, in data set [1], the Thrombus wet weight is 47.3±6.3^★★**## mg and the Thrombus dry weight was 12.3±5.7^★★**## mg.

For `COc1cc(C(=O)O)ccc1OCCn1ccnc1` [Compound A], the MRTo-t in data set [2] is 5.4 h.

As for `COc1cc(C(=O)Nc2ccc(C[C@H](N)C(=O)O)cc2)ccc1OCCn1ccnc1.Cl` [Example 7, (S)-4-(4-(2-(1H-imidazol-1-yl)ethoxy)-3-methoxybenzamido)phenylalanine hydrochloride], the inhibition at 15 mg/kg in data set [1] (setting [3]) came out at 52.6%. Further, in data set [1] (setting [4]), the inhibition at 15 mg/kg came to 46.2%. In data set [1], the Thrombus wet weight was 54.4±9.8^★★*## mg and the Thrombus dry weight is recorded as 16.1±3.3^★★*## mg.

For `COc1cc(C(=O)Nc2ccc(C[C@@H](N)C(=O)O)cc2)ccc1OCCn1ccnc1` [Example 8, (R)-3-(4-(4-(2-(1H-imidazol-1-yl)ethoxy)-3-methoxybenzamido)phenyl)-2-propionic acid hydrochloride], the inhibition at 15 mg/kg in data set [1] (setting [3]) is 57%. Further, the inhibition at 15 mg/kg in data set [1] (setting [4]) is 48.6%. Besides, in data set [1], the Thrombus wet weight is listed as 52.0±13.5^★★**## mg and the Thrombus dry weight is listed as 14.6±3.8^★★**## mg.

For the molecule `COc1cc(C(=O)OC(C)C)ccc1OCCn1ccnc1.Cl` [Example 2, isopropyl 4-(2-(1H-imidazol-1-yl)ethoxy)-3-methoxybenzoate hydrochloride], the inhibition at 15 mg/kg in data set [1] (setting [3]) is 54.8%. Further, the inhibition at 15 mg/kg in data set [1] (setting [4]) came to 48.3%. In addition, in data set [1], the Thrombus wet weight was 52.3±10.5^★★**## mg and the Thrombus dry weight is given as 15.4±5.0^★★*## mg.

For the molecule `COc1cc(C(=O)OC(C)OC(C)=O)ccc1OCCn1ccnc1` (stereo not drawn) [Example 6, 1-acetoxyethyl-4-(2-(1H-imidazol-1-yl)ethoxy)-3-methoxybenzoate], in data set [1] (setting [3]), the inhibition at 15 mg/kg was 58.1%. The inhibition at 15 mg/kg in data set [1] (setting [4]) was found to be 55.4%. Besides, in data set [1], the Thrombus wet weight is given as 45.1±8.6^★★**## mg and the Thrombus dry weight is on record as 14.3±5.0^★★**## mg.

In the case of `COC(=O)c1ccc(OCCn2ccnc2)c(OC)c1` [Compound A methyl ester, reference compound], the inhibition at 15 mg/kg in data set [1] (setting [3]) is 32.4%. The inhibition at 15 mg/kg in data set [1] (setting [4]) is 29.4%. Also, in data set [1], the Thrombus wet weight was 71.3±8.7^★★ mg and the Thrombus dry weight was 23.0±8.2^★★ mg. Moreover, the MRTo-t in data set [2] is reported as 6.5 h.

In the case of `CCCOC(=O)c1ccc(OCCn2ccnc2)c(OC)c1` [Example 1, propyl 4-(2-(1H-imidazol-1-yl)ethoxy)-3-methoxybenzoate], the figures for the inhibition at 15 mg/kg in data set [1] (setting [3]) and in data set [1] (setting [4]) were 52.9% and 45.9%, respectively. Also, in data set [1], the Thrombus wet weight is recorded as 54.8±12.7^★★*## mg. The Thrombus dry weight in data set [1] is given as 16.0±3.4^★★*## mg.

For `COc1cc(C(=O)OCOC(=O)OC(C)C)ccc1OCCn1ccnc1` [Example 5, ((isopropoxycarbonyl)oxy)methyl-4-(2-(1H -imidazol-1-yl)ethoxy)-3-methoxybenzoate], the inhibition at 15 mg/kg in data set [1] (setting [3]) was 55.9%. In addition, the inhibition at 15 mg/kg in data set [1] (setting [4]) was 53.5%. Further, in data set [1], the Thrombus wet weight is recorded as 47.0±8.7^★★**## mg and the Thrombus dry weight is 15.0±4.5^★★*## mg.

Regarding `COc1cc(C(=O)Oc2ccc(C[C@@H](N)C(=O)O)cc2)ccc1OCCn1ccnc1.Cl` [Example 10, (R)-4-(4-(2-(1H-imidazol-1-yl)ethoxy)-3-methoxybenzoyloxy)phenylalanine hydrochloride], the inhibition at 15 mg/kg in data set [1] (setting [3]) turned out to be 55.1%. For the same molecule, in data set [1] (setting [4]), the inhibition at 15 mg/kg came out at 47.5%. Also, in data set [1], the Thrombus wet weight is given as 53.1±11.8^★★**## mg and the Thrombus dry weight was 15.3±2.8^★★*## mg.
